Experiment: xn = mol fraction of the nth substance listed
Conditions: Liquid

CCCCCCCCCC [decane] + O=C=O
Conditions | mass density [kg/m3]
303.04 K, 8020 kPa, x2 = 0.869 | 798.45
303.15 K, 9990 kPa, x2 = 0.4698 | 756.27
303.15 K, 11990 kPa, x2 = 0.4698 | 758.43
303.15 K, 14000 kPa, x2 = 0.4698 | 760.53
303.15 K, 15980 kPa, x2 = 0.4698 | 762.54
303.15 K, 17990 kPa, x2 = 0.4698 | 764.51
303.15 K, 19010 kPa, x2 = 0.2361 | 748.64
303.15 K, 19010 kPa, x2 = 0.4698 | 765.49
303.16 K, 7980 kPa, x2 = 0.2361 | 740.1
303.16 K, 8020 kPa, x2 = 0.4698 | 754.05
303.16 K, 9970 kPa, x2 = 0.2361 | 741.73
303.16 K, 12020 kPa, x2 = 0.2361 | 743.35
303.16 K, 16020 kPa, x2 = 0.2361 | 746.43
303.17 K, 14020 kPa, x2 = 0.2361 | 744.91
303.17 K, 18020 kPa, x2 = 0.2361 | 747.92
303.31 K, 10030 kPa, x2 = 0.869 | 807.43
303.31 K, 14030 kPa, x2 = 0.869 | 824.12
303.31 K, 18050 kPa, x2 = 0.869 | 837.96
303.36 K, 12020 kPa, x2 = 0.869 | 816.02
303.37 K, 16020 kPa, x2 = 0.869 | 831.09
313 K, 7980 kPa, x2 = 0.71 | 763.24
313 K, 9940 kPa, x2 = 0.71 | 767.44
313 K, 13970 kPa, x2 = 0.71 | 775.3
313.01 K, 11690 kPa, x2 = 0.71 | 770.91
313.01 K, 18020 kPa, x2 = 0.71 | 782.43
313.03 K, 16020 kPa, x2 = 0.71 | 778.96
313.06 K, 13970 kPa, x2 = 0.4698 | 750.5
313.07 K, 15990 kPa, x2 = 0.4698 | 752.76
313.09 K, 17990 kPa, x2 = 0.4698 | 754.91
313.09 K, 19000 kPa, x2 = 0.4698 | 755.97
313.1 K, 8010 kPa, x2 = 0.4698 | 743.23
313.11 K, 11990 kPa, x2 = 0.4698 | 748.15
313.12 K, 10010 kPa, x2 = 0.4698 | 745.74
313.13 K, 16010 kPa, x2 = 0.2361 | 738.82
313.13 K, 18010 kPa, x2 = 0.2361 | 740.41
313.14 K, 10010 kPa, x2 = 0.2361 | 733.81
313.14 K, 19020 kPa, x2 = 0.2361 | 741.18
313.15 K, 7990 kPa, x2 = 0.2361 | 732.05
313.15 K, 14010 kPa, x2 = 0.2361 | 737.19
313.16 K, 12000 kPa, x2 = 0.2361 | 735.5
313.23 K, 18020 kPa, x2 = 0.869 | 812.48
313.27 K, 10000 kPa, x2 = 0.869 | 776.26
313.31 K, 14000 kPa, x2 = 0.869 | 796.68
313.33 K, 12000 kPa, x2 = 0.869 | 787.12
313.36 K, 7990 kPa, x2 = 0.869 | 762.46
313.37 K, 16040 kPa, x2 = 0.869 | 804.9
323.02 K, 8000 kPa, x2 = 0.71 | 747.45
323.02 K, 18230 kPa, x2 = 0.71 | 769.63
323.09 K, 14030 kPa, x2 = 0.71 | 761.43
323.11 K, 16040 kPa, x2 = 0.71 | 765.46
323.12 K, 9940 kPa, x2 = 0.71 | 752.26
323.13 K, 18030 kPa, x2 = 0.2361 | 732.88
323.15 K, 8010 kPa, x2 = 0.4698 | 732.04
323.15 K, 9980 kPa, x2 = 0.4698 | 734.86
323.15 K, 11970 kPa, x2 = 0.71 | 756.86
323.15 K, 12030 kPa, x2 = 0.2361 | 727.66
323.15 K, 16020 kPa, x2 = 0.2361 | 731.17
323.15 K, 18000 kPa, x2 = 0.4698 | 745.11
323.15 K, 19000 kPa, x2 = 0.4698 | 746.27
323.15 K, 19020 kPa, x2 = 0.2361 | 733.69
323.16 K, 14030 kPa, x2 = 0.2361 | 729.45
323.17 K, 12020 kPa, x2 = 0.4698 | 737.61
323.17 K, 15980 kPa, x2 = 0.4698 | 742.66
323.18 K, 8030 kPa, x2 = 0.2361 | 723.85
323.18 K, 9970 kPa, x2 = 0.2361 | 725.74
323.19 K, 13990 kPa, x2 = 0.4698 | 740.16
323.29 K, 16020 kPa, x2 = 0.869 | 778.27
323.3 K, 10010 kPa, x2 = 0.869 | 740.74
323.3 K, 18080 kPa, x2 = 0.869 | 787.62
323.34 K, 11990 kPa, x2 = 0.869 | 755.53
323.38 K, 14000 kPa, x2 = 0.869 | 767.56
333.09 K, 10020 kPa, x2 = 0.71 | 736.44
333.1 K, 11960 kPa, x2 = 0.71 | 741.69
333.12 K, 8090 kPa, x2 = 0.71 | 730.25
333.12 K, 17970 kPa, x2 = 0.4698 | 735.23
333.12 K, 18050 kPa, x2 = 0.71 | 756.13
333.13 K, 8020 kPa, x2 = 0.2361 | 715.58
333.13 K, 11990 kPa, x2 = 0.4698 | 726.89
333.13 K, 14000 kPa, x2 = 0.4698 | 729.82
333.13 K, 14030 kPa, x2 = 0.2361 | 721.58
333.13 K, 14050 kPa, x2 = 0.71 | 746.85
333.13 K, 15960 kPa, x2 = 0.4698 | 732.55
333.13 K, 16020 kPa, x2 = 0.2361 | 723.45
333.13 K, 19020 kPa, x2 = 0.2361 | 726.15
333.14 K, 9930 kPa, x2 = 0.4698 | 723.71
333.15 K, 10020 kPa, x2 = 0.2361 | 717.65
333.15 K, 12030 kPa, x2 = 0.2361 | 719.64
333.15 K, 16040 kPa, x2 = 0.71 | 751.6
333.15 K, 18020 kPa, x2 = 0.2361 | 725.24
333.19 K, 7980 kPa, x2 = 0.4698 | 720.48
333.19 K, 15930 kPa, x2 = 0.869 | 754.21
333.2 K, 18080 kPa, x2 = 0.869 | 762.91
333.22 K, 14070 kPa, x2 = 0.869 | 745.06
343.02 K, 10240 kPa, x2 = 0.71 | 720.54
343.02 K, 12280 kPa, x2 = 0.71 | 726.49
343.1 K, 12070 kPa, x2 = 0.4698 | 716.06
343.11 K, 16090 kPa, x2 = 0.4698 | 722.46
343.11 K, 19120 kPa, x2 = 0.4698 | 726.87
343.12 K, 14000 kPa, x2 = 0.71 | 730.99
343.13 K, 8070 kPa, x2 = 0.4698 | 708.84
343.13 K, 16030 kPa, x2 = 0.71 | 736.12
343.13 K, 18000 kPa, x2 = 0.71 | 741.08
343.14 K, 18000 kPa, x2 = 0.4698 | 725.25
343.16 K, 18050 kPa, x2 = 0.869 | 743.75
343.18 K, 9930 kPa, x2 = 0.4698 | 712.24
343.19 K, 13920 kPa, x2 = 0.4698 | 719
343.21 K, 12010 kPa, x2 = 0.2361 | 711.78
343.23 K, 16060 kPa, x2 = 0.869 | 735.77
343.23 K, 18020 kPa, x2 = 0.2361 | 718.14
343.24 K, 14010 kPa, x2 = 0.2361 | 713.97
343.24 K, 16010 kPa, x2 = 0.2361 | 716.11
343.25 K, 8010 kPa, x2 = 0.2361 | 707.17
343.25 K, 10010 kPa, x2 = 0.2361 | 709.51
343.26 K, 19020 kPa, x2 = 0.2361 | 719.17
352.97 K, 9880 kPa, x2 = 0.71 | 706.61
352.99 K, 18040 kPa, x2 = 0.869 | 719.9
353.01 K, 11990 kPa, x2 = 0.71 | 711.36
353.06 K, 16040 kPa, x2 = 0.4698 | 711.93
353.06 K, 19020 kPa, x2 = 0.2361 | 711.31
353.09 K, 14010 kPa, x2 = 0.4698 | 708.37
353.09 K, 18080 kPa, x2 = 0.4698 | 715.25
353.1 K, 12020 kPa, x2 = 0.2361 | 703.37
353.11 K, 10030 kPa, x2 = 0.2361 | 700.96
353.11 K, 14010 kPa, x2 = 0.2361 | 705.7
353.12 K, 10090 kPa, x2 = 0.4698 | 700.82
353.12 K, 17940 kPa, x2 = 0.71 | 725.1
353.12 K, 18020 kPa, x2 = 0.2361 | 710.21
353.12 K, 19060 kPa, x2 = 0.4698 | 716.77
353.13 K, 8010 kPa, x2 = 0.2361 | 698.4
353.13 K, 8040 kPa, x2 = 0.4698 | 696.42
353.13 K, 12050 kPa, x2 = 0.4698 | 704.69
353.13 K, 16020 kPa, x2 = 0.2361 | 707.98
353.14 K, 15980 kPa, x2 = 0.71 | 719.92
353.26 K, 14130 kPa, x2 = 0.71 | 715.78
362.92 K, 12050 kPa, x2 = 0.71 | 698.95
362.99 K, 18090 kPa, x2 = 0.71 | 712.19
363.08 K, 16050 kPa, x2 = 0.71 | 707.18
363.28 K, 14100 kPa, x2 = 0.71 | 702.89

Source: the NIST ThermoML archive (doi:10.1021/je300388b)
